Reference: paper PMC5218480 (PLoS ONE, 2017)

Test system: MV-4-11 cells
Assay: Gene expression microarray analysis (Affymetrix PrimeView) and GSEA
Type: cell-based, human
Set-up: RFU PODN (11730768_x_at) / Fold change /veh PODN (11730768_x_at) / RFU LINC00158 (11744669_a_at) / Fold change /veh LINC00158 (11744669_a_at) / RFU DUSP10 (11751237_a_at) / Fold change /veh DUSP10 (11751237_a_at) / RFU ID3 (11757404_x_at) / Fold change /veh ID3 (11757404_x_at) / RFU PLEKHG5 (11737974_s_at) / Fold change /veh PLEKHG5 (11737974_s_at) / RFU LRRC4B (11730491_at) / Fold change /veh LRRC4B (11730491_at) / RFU GIMAP4 (11747438_a_at) / Fold change /veh GIMAP4 (11747438_a_at) / RFU KRT8 (11758183_x_at) / Fold change /veh KRT8 (11758183_x_at) / RFU CNN1 (11734310_a_at) / Fold change /veh CNN1 (11734310_a_at) / RFU VPS37D (11726825_at) / Fold change /veh VPS37D (11726825_at) / RFU C10orf10 (11716522_x_at) / Fold change /veh C10orf10 (11716522_x_at) / RFU KIR2DL2 /// KIR2DL4 /// KIR2DL5A /// KIR2DL5B /// KIR2DS1 /// KIR2DS2 /// KIR2DS3 /// KIR2DS4 /// KIR3DL3 /// KIR3DL3 /// KIR3DS1 (11738374_at) / Fold change /veh KIR2DL2 /// KIR2DL4 /// KIR2DL5A /// KIR2DL5B /// KIR2DS1 /// KIR2DS2 /// KIR2DS3 /// KIR2DS4 /// KIR3DL3 /// KIR3DL3 /// KIR3DS1 (11738374_at) / RFU C1QL1 (11718748_at) / Fold change /veh C1QL1 (11718748_at) / RFU TMPRSS4 (11747572_a_at) / Fold change /veh TMPRSS4 (11747572_a_at) / RFU HAMP (11756126_x_at) / Fold change /veh HAMP (11756126_x_at) / RFU RNFT2 (11725882_a_at) / Fold change /veh RNFT2 (11725882_a_at) / RFU NR4A2 (11747474_a_at) / Fold change /veh NR4A2 (11747474_a_at) / RFU ABCC12 (11746883_a_at) / Fold change /veh ABCC12 (11746883_a_at) / RFU TMEM136 (11760407_x_at) / Fold change /veh TMEM136 (11760407_x_at) / RFU CLDN22 /// WWC2 (11732394_at) / Fold change /veh CLDN22 /// WWC2 (11732394_at) / RFU HLA-DPB1 (11760878_x_at) / Fold change /veh HLA-DPB1 (11760878_x_at) / RFU SPINT1 (11716480_a_at) / Fold change /veh SPINT1 (11716480_a_at) / RFU GAP43 (11754022_s_at) / Fold change /veh GAP43 (11754022_s_at) / RFU A4GNT (11735810_at) / Fold change /veh A4GNT (11735810_at) / RFU PRB3 (11715151_x_at) / Fold change /veh PRB3 (11715151_x_at) / RFU TUBB4B (11761932_at) / Fold change /veh TUBB4B (11761932_at) / RFU CAPN14 (11732068_a_at) / Fold change /veh CAPN14 (11732068_a_at) / RFU TMCC2 (11721928_a_at) / Fold change /veh TMCC2 (11721928_a_at) / RFU IRGQ (11745062_a_at) / Fold change /veh IRGQ (11745062_a_at) / RFU FAM174B (11720279_a_at) / Fold change /veh FAM174B (11720279_a_at) / RFU TMPRSS4 (11748680_a_at) / Fold change /veh TMPRSS4 (11748680_a_at) / RFU FAM212B (11763350_a_at) / Fold change /veh FAM212B (11763350_a_at) / RFU PLEKHG5 (11743358_a_at) / Fold change /veh PLEKHG5 (11743358_a_at) / RFU ZSCAN30 (11745921_a_at) / Fold change /veh ZSCAN30 (11745921_a_at) / RFU CMKLR1 (11741424_a_at) / Fold change /veh CMKLR1 (11741424_a_at) / RFU LOC101060620 /// MAPK8IP1 (11723275_at) / Fold change /veh LOC101060620 /// MAPK8IP1 (11723275_at) / RFU SPTSSB (11747773_x_at) / Fold change /veh SPTSSB (11747773_x_at) / RFU PRSS12 (11739890_at) / Fold change /veh PRSS12 (11739890_at) / RFU BIN1 (11741810_x_at) / Fold change /veh BIN1 (11741810_x_at) / RFU WNT11 (11732464_a_at) / Fold change /veh WNT11 (11732464_a_at) / RFU C10orf10 (11716521_a_at) / Fold change /veh C10orf10 (11716521_a_at) / RFU C5orf56 (11738089_at) / Fold change /veh C5orf56 (11738089_at) / RFU CYB561 (11721691_x_at) / Fold change /veh CYB561 (11721691_x_at) / RFU ANKRD19P (11752326_a_at) / Fold change /veh ANKRD19P (11752326_a_at) / RFU OR2T12 /// OR2T33 /// OR2T8 (11738714_s_at) / Fold change /veh OR2T12 /// OR2T33 /// OR2T8 (11738714_s_at) / RFU VCAN (11748164_a_at) / Fold change /veh VCAN (11748164_a_at) / RFU JSRP1 (11732532_at) / Fold change /veh JSRP1 (11732532_at) / RFU KRTAP10-11 (11738290_x_at) / Fold change /veh KRTAP10-11 (11738290_x_at) / RFU MYO3A (11730013_a_at) / Fold change /veh MYO3A (11730013_a_at) / RFU EBF3 (11725865_a_at) / Fold change /veh EBF3 (11725865_a_at) / RFU CAMK2N1 (11719241_x_at) / Fold change /veh CAMK2N1 (11719241_x_at) / RFU C5orf56 (11738088_a_at) / Fold change /veh C5orf56 (11738088_a_at) / RFU OLFML3 (11715873_a_at) / Fold change /veh OLFML3 (11715873_a_at) / RFU LOC100653217 /// NTM (11731650_a_at) / Fold change /veh LOC100653217 /// NTM (11731650_a_at) / RFU MAPK11 (11762145_a_at) / Fold change /veh MAPK11 (11762145_a_at) / RFU FIZ1 (11724087_x_at) / Fold change /veh FIZ1 (11724087_x_at) / RFU OASL (11726364_x_at) / Fold change /veh OASL (11726364_x_at) / RFU SOX15 (11748057_x_at) / Fold change /veh SOX15 (11748057_x_at) / RFU CD79A (11719716_a_at) / Fold change /veh CD79A (11719716_a_at) / RFU HIST1H1D (11736915_at) / Fold change /veh HIST1H1D (11736915_at) / RFU CASKIN2 (11723855_a_at) / Fold change /veh CASKIN2 (11723855_a_at) / RFU LOC730098 (11760151_x_at) / Fold change /veh LOC730098 (11760151_x_at) / RFU OR4N2 (11742367_at) / Fold change /veh OR4N2 (11742367_at) / RFU PRRT2 (11749266_a_at) / Fold change /veh PRRT2 (11749266_a_at) / RFU SNX32 (11753110_a_at) / Fold change /veh SNX32 (11753110_a_at) / RFU CDHR5 (11726645_a_at) / Fold change /veh CDHR5 (11726645_a_at) / RFU RCAN1 (11760418_a_at) / Fold change /veh RCAN1 (11760418_a_at) / RFU FAM167A (11723789_a_at) / Fold change /veh FAM167A (11723789_a_at) / RFU FAM26E (11764081_at) / Fold change /veh FAM26E (11764081_at) / RFU ISYNA1 (11749810_s_at) / Fold change /veh ISYNA1 (11749810_s_at) / RFU ACY1 (11761880_at) / Fold change /veh ACY1 (11761880_at) / RFU 11764098_at / Fold change /veh 11764098_at / RFU SAMD14 (11745864_x_at) / Fold change /veh SAMD14 (11745864_x_at) / RFU NPB (11741838_a_at) / Fold change /veh NPB (11741838_a_at) / RFU TMPRSS6 (11731388_a_at) / Fold change /veh TMPRSS6 (11731388_a_at) / RFU KRTAP10-2 (11738614_at) / Fold change /veh KRTAP10-2 (11738614_at) / RFU ARHGAP8 /// PRR5-ARHGAP8 (11727945_x_at) / Fold change /veh ARHGAP8 /// PRR5-ARHGAP8 (11727945_x_at) / RFU KRTAP5-7 /// NADSYN1 (11734609_at) / Fold change /veh KRTAP5-7 /// NADSYN1 (11734609_at) / RFU RASL12 (11751679_a_at) / Fold change /veh RASL12 (11751679_a_at) / RFU CDKN2B (11736163_a_at) / Fold change /veh CDKN2B (11736163_a_at) / RFU PRF1 (11729649_at) / Fold change /veh PRF1 (11729649_at) / RFU, ZNF638 /// ZNF638-IT1 / Fold change vs veh, ZNF638 /// ZNF638-IT1 / RFU, PANK3 / Fold change vs veh, PANK3 / RFU, SH3YL1 / Fold change vs veh, SH3YL1 / RFU, ZEB2 / Fold change vs veh, ZEB2 / RFU, NRIP1 / Fold change vs veh, NRIP1 / RFU, PTTG1IP / Fold change vs veh, PTTG1IP / RFU, CAPN2 / Fold change vs veh, CAPN2 / RFU, MED14 / Fold change vs veh, MED14 / RFU, SNORA58 / Fold change vs veh, SNORA58 / RFU, C1orf63 / Fold change vs veh, C1orf63 / RFU, LRRFIP1 / Fold change vs veh, LRRFIP1 / RFU, NDUFAF7 / Fold change vs veh, NDUFAF7 / RFU, SLC12A2 / Fold change vs veh, SLC12A2 / RFU, IBTK / Fold change vs veh, IBTK / RFU, ESF1 / Fold change vs veh, ESF1 / Fold change vs veh, TMEM50B / RFU, TAOK1 / Fold change vs veh, TAOK1 / RFU, ACBD3 / Fold change vs veh, ACBD3 / RFU, TMA16 / Fold change vs veh, TMA16 / RFU, RWDD3 / Fold change vs veh, RWDD3 / RFU, BCAT1 / Fold change vs veh, BCAT1 / RFU, EDEM3 / Fold change vs veh, EDEM3 / RFU, TMEM33 / Fold change vs veh, TMEM33 / RFU, WDR75 / Fold change vs veh, WDR75 / RFU, AHCTF1 / Fold change vs veh, AHCTF1 / RFU, TFRC / Fold change vs veh, TFRC / RFU, ZDHHC17 / Fold change vs veh, ZDHHC17 / RFU, NOM1 / Fold change vs veh, NOM1 / RFU, ARL8B / Fold change vs veh, ARL8B / RFU, ZBTB11 / Fold change vs veh, ZBTB11 / RFU, TAMM41 / Fold change vs veh, TAMM41 / RFU, KIAA1704 /// LOC100996395 / Fold change vs veh, KIAA1704 /// LOC100996395 / RFU, ING1 / Fold change vs veh, ING1 / RFU, TRMT61B / Fold change vs veh, TRMT61B / RFU, FUBP3 / Fold change vs veh, FUBP3 / RFU, TP53 / Fold change vs veh, TP53 / RFU, TNKS2 / Fold change vs veh, TNKS2 / RFU, ZFP14 / Fold change vs veh, ZFP14 / RFU, ACTR2 / Fold change vs veh, ACTR2 / RFU, PPP3R1 / Fold change vs veh, PPP3R1 / RFU, PIK3R1 / Fold change vs veh, PIK3R1 / RFU, HNRNPA1 / Fold change vs veh, HNRNPA1 / RFU, RNF170 / Fold change vs veh, RNF170 / RFU, ZNF28 / Fold change vs veh, ZNF28 / RFU, RNGTT / Fold change vs veh, RNGTT / RFU, OGT / Fold change vs veh, OGT / RFU, BRD1 / Fold change vs veh, BRD1 / RFU, MARS / Fold change vs veh, MARS / RFU, ZNF655 / Fold change vs veh, ZNF655 / RFU, FAHD1 / Fold change vs veh, FAHD1 / RFU, BDP1 / Fold change vs veh, BDP1 / RFU, LRRCC1 / Fold change vs veh, LRRCC1 / RFU, ARID1A / Fold change vs veh, ARID1A / RFU, ZNF146 / Fold change vs veh, ZNF146 / RFU, ZNF330 / Fold change vs veh, ZNF330 / RFU, GPN3 / Fold change vs veh, GPN3 / RFU, C9orf123 / Fold change vs veh, C9orf123 / RFU, N4BP2L2 / Fold change vs veh, N4BP2L2 / RFU, ARFIP1 / Fold change vs veh, ARFIP1 / RFU, FAM179B / Fold change vs veh, FAM179B / RFU, BCL10 / Fold change vs veh, BCL10 / RFU, UHRF1BP1L / Fold change vs veh, UHRF1BP1L / RFU, BET1 / Fold change vs veh, BET1 / RFU, CNOT2 / Fold change vs veh, CNOT2 / RFU, ZNF268 / Fold change vs veh, ZNF268 / Fold change vs veh, ZNF507 / RFU, DGCR2 / Fold change vs veh, DGCR2 / RFU, WDSUB1 / Fold change vs veh, WDSUB1 / Fold change vs veh, HSP90B1 /// MIR3652 / RFU, ADSS / Fold change vs veh, ADSS / RFU, GK / Fold change vs veh, GK / RFU, ZNF148 / Fold change vs veh, ZNF148 / RFU, TAF9 / Fold change vs veh, TAF9 / RFU, SLC1A5 / Fold change vs veh, SLC1A5 / RFU, SLMO2 / Fold change vs veh, SLMO2 / RFU, ABCC4 / Fold change vs veh, ABCC4 / RFU, LOC101060439 /// RAP1B / Fold change vs veh, LOC101060439 /// RAP1B / RFU, RFX7 / Fold change vs veh, RFX7 / RFU, GTPBP10 / Fold change vs veh, GTPBP10 / RFU, CNEP1R1 / Fold change vs veh, CNEP1R1 / RFU, BIVM-ERCC5 /// ERCC5 / Fold change vs veh, BIVM-ERCC5 /// ERCC5 / RFU, ILF3 / Fold change vs veh, ILF3 / RFU 11762660_at / Fold change /veh 11762660_at / RFU VCAN (11757783_s_at) / Fold change /veh VCAN (11757783_s_at) / RFU DDX43 (11728927_at) / Fold change /veh DDX43 (11728927_at) / RFU KRT8 (11758188_x_at) / Fold change /veh KRT8 (11758188_x_at) / RFU NKD1 (11759106_at) / Fold change /veh NKD1 (11759106_at) / RFU SRD5A1 (11742802_a_at) / Fold change /veh SRD5A1 (11742802_a_at) / RFU TPSAB1 /// TPSB2 (11721975_s_at) / Fold change /veh TPSAB1 /// TPSB2 (11721975_s_at) / RFU GSTM3 (11746129_a_at) / Fold change /veh GSTM3 (11746129_a_at) / RFU IL23R (11737362_x_at) / Fold change /veh IL23R (11737362_x_at) / RFU TMEM51 (11727254_a_at) / Fold change /veh TMEM51 (11727254_a_at) / RFU PIWIL2 (11732686_x_at) / Fold change /veh PIWIL2 (11732686_x_at) / RFU ORM1 (11744905_x_at) / Fold change /veh ORM1 (11744905_x_at) / RFU CCDC152 (11743942_at) / Fold change /veh CCDC152 (11743942_at) / RFU ECM1 (11717891_a_at) / Fold change /veh ECM1 (11717891_a_at) / RFU IL23R (11748794_a_at) / Fold change /veh IL23R (11748794_a_at) / RFU TNFAIP8L3 (11732012_x_at) / Fold change /veh TNFAIP8L3 (11732012_x_at) / RFU MBOAT4 (11741988_at) / Fold change /veh MBOAT4 (11741988_at) / RFU 11764193_at / Fold change /veh 11764193_at / RFU TMEM53 (11763286_at) / Fold change /veh TMEM53 (11763286_at) / RFU MAGEB2 (11727129_at) / Fold change /veh MAGEB2 (11727129_at) / RFU TMEM200A (11744735_a_at) / Fold change /veh TMEM200A (11744735_a_at) / RFU CCDC152 (11751479_a_at) / Fold change /veh CCDC152 (11751479_a_at) / RFU FAM211A (11726209_a_at) / Fold change /veh FAM211A (11726209_a_at) / RFU RGS16 (11746705_a_at) / Fold change /veh RGS16 (11746705_a_at) / RFU VCAN (11755009_s_at) / Fold change /veh VCAN (11755009_s_at) / RFU RHOB (11743442_s_at) / Fold change /veh RHOB (11743442_s_at) / RFU RGS16 (11720943_a_at) / Fold change /veh RGS16 (11720943_a_at) / RFU RGS16 (11720944_at) / Fold change /veh RGS16 (11720944_at) / RFU, VPS4B / Fold change vs veh, VPS4B / RFU, CREB1 / Fold change vs veh, CREB1 / RFU, DNAJC13 / Fold change vs veh, DNAJC13 / RFU, GNAQ / Fold change vs veh, GNAQ / RFU, CDK5R1 / Fold change vs veh, CDK5R1 / RFU, ZRANB3 / Fold change vs veh, ZRANB3 / RFU, CUL4A / Fold change vs veh, CUL4A / RFU, CCNY / Fold change vs veh, CCNY / RFU, UFL1 / Fold change vs veh, UFL1 / RFU, COG3 / Fold change vs veh, COG3 / RFU, DIAPH2 / Fold change vs veh, DIAPH2 / RFU, SKA2 / Fold change vs veh, SKA2 / RFU, AFF3 / Fold change vs veh, AFF3 / RFU, LMF1 / Fold change vs veh, LMF1 / RFU, IPO11 / Fold change vs veh, IPO11 / RFU, DFFB / Fold change vs veh, DFFB / RFU, FOXP1 / Fold change vs veh, FOXP1 / RFU, CARD8 / Fold change vs veh, CARD8 / RFU, STRN3 / Fold change vs veh, STRN3 / RFU, ADK / Fold change vs veh, ADK / RFU, RASSF2 / Fold change vs veh, RASSF2 / RFU, WIPF1 / Fold change vs veh, WIPF1 / RFU, LARP1B / Fold change vs veh, LARP1B / RFU, RASA1 / Fold change vs veh, RASA1 / RFU, RB1 / Fold change vs veh, RB1 / RFU, PPFIA1 / Fold change vs veh, PPFIA1 / RFU, MAT2A / Fold change vs veh, MAT2A / RFU, CCT5 / Fold change vs veh, CCT5 / RFU, WDR92 / Fold change vs veh, WDR92 / RFU, CUX1 / Fold change vs veh, CUX1 / RFU, TTC7A / Fold change vs veh, TTC7A / RFU, TMEM135 / Fold change vs veh, TMEM135 / RFU, DEPTOR / Fold change vs veh, DEPTOR / RFU, CPM / Fold change vs veh, CPM / RFU, DNAJB6 / Fold change vs veh, DNAJB6 / RFU, CACNA2D3 / Fold change vs veh, CACNA2D3 / RFU, DTX4 / Fold change vs veh, DTX4 / RFU, TFCP2 / Fold change vs veh, TFCP2 / RFU, GMCL1 /// GMCL1P1 / Fold change vs veh, GMCL1 /// GMCL1P1 / RFU, AEBP2 / Fold change vs veh, AEBP2 / RFU, SNHG1 /// SNORD22 /// SNORD25 /// SNORD26 /// SNORD27 /// SNORD28 /// SNORD29 /// SNORD31 / Fold change vs veh, SNHG1 /// SNORD22 /// SNORD25 /// SNORD26 /// SNORD27 /// SNORD28 /// SNORD29 /// SNORD31 / Fold change (Aza/veh), C12orf56 (ProbeSet 11735607_a_at) / Fold change (ACY-1035/veh), C12orf56 (ProbeSet 11735607_a_at) / Fold change (Aza/veh), FGFR1OP (ProbeSet 11751329_s_at) / Fold change (ACY-1035/veh), FGFR1OP (ProbeSet 11751329_s_at) / Fold change (Aza/veh), VPS36 (ProbeSet 11739960_a_at) / Fold change (ACY-1035/veh), VPS36 (ProbeSet 11739960_a_at) / RFU SYPL1 (11715823_x_at) / Fold change /veh SYPL1 (11715823_x_at) / RFU IGFBP7 (11715501_s_at) / Fold change /veh IGFBP7 (11715501_s_at) / RFU REEP3 (11722064_at) / Fold change /veh REEP3 (11722064_at) / RFU IGLL1 (11728026_x_at) / Fold change /veh IGLL1 (11728026_x_at): dose or concentration left out as unconfirmed
Conditions: MV-4-11 cells, 48 hours

In the case of Nc1ncn([C@@H]2O[C@H](CO)[C@@H](O)[C@H]2O)c(=O)n1 [azacitidine], the “Fold change /veh CASKIN2 (11723855_a_at)” value is reported as 1.13.
